# Tested on: RA patients
# Assay: Total cholesterol determination, Study 2 (RA patients, monotherapy with Compound 1)
# Format: in vivo, human
# Text: Randomized, double-blind, placebo-controlled, multicenter, phase IIb dose finding study of Compound 1 (dosed as a [Compound 1:HCl:3H2O]) administered for 24 weeks as monotherapy to subjects with moderately to severely active rheumatoid arthritis who have an inadequate response to methotrexate alone
# Double-blind, placebo-controlled, monotherapy study in subjects with moderately to severely active RA who have an inadequate response to methotrexate (MTX) (oral or parenteral).
# 280 subjects randomized to one of 3 doses of Compound 1 (dosed as a [Compound 1:HCl:3H2O]) or to placebo, given once daily (q.d.).
# Twelve weeks of treatment with Compound 1 (dosed as a [Compound 1:HCl:3H2O]) at 50 mg, 100 mg, or 200 mg q.d.; or placebo. At Week 12, all subjects on placebo and the subjects on the 50 mg dose who have not achieved 20% improvement in swollen joint count (SJC66) and tender joint count (TJC68) will be assigned to 100 mg q.d. in a blinded fashion and will continue treatment until Week 24. Subjects in the other groups will maintain their randomized treatment until Week 24.
# This method is based on the determination of Δ^4 cholestenone after enzymatic cleavage of the cholesterol ester by cholesterol esterase, conversion of cholesterol by cholesterol oxidase, and subsequent measurement by the Trinder reaction of the hydrogen peroxide formed (Allain et al., 1974).
# Cholesterol esters are cleaved by the action of cholesterol esterase to yield free cholesterol and fatty acids. Cholesterol oxidase then catalyzes the oxidation of cholesterol to cholest-4-en-3-one and hydrogen peroxide. In the presence of peroxidase, the hydrogen peroxide formed effects the oxidative coupling of phenol and 4-aminophenazone to form a red quinone-imine dye. The color intensity of the dye formed is directly proportional to the cholesterol concentration. It is determined by measuring the increase in absorbance.
# Human serum and plasma samples cholesterol determination was done on a Roche/Hitachi Cobas c 701/702 system which automatically calculate the analyte concentration of each sample.
# [1] = placebo switching to 100 mg q.d. at week 12, week 16
# [2] = placebo switching to 100 mg q.d. at week 12, week 20
# [3] = placebo switching to 100 mg q.d. at week 12, week 24
smiles,measurement,setting,value
"O=C(Nc1nc2cccc(-c3ccc(CN4CCS(=O)(=O)CC4)cc3)n2n1)C1CC1 [Compound 1, cyclopropanecarboxylic acid {5-[4-(1,1-dioxo-thiomorpholin-4-ylmethyl)-phenyl]-[1,2,4]triazolo[1,5-a]pyridin-2yl}-amide]",[total cholesterol] Mean percentage CFB - 24 weeks results,"200 mg q.d., week 4",9.35%
same,[total cholesterol] Median percentage CFB - 24 weeks results,"200 mg q.d., week 4",7.39%
same,[total cholesterol] Mean percentage CFB - 12 weeks results,"200 mg q.d., week 8",9.62%
same,[total cholesterol] Mean percentage CFB - 24 weeks results,"200 mg q.d., week 8",9.62%
same,[total cholesterol] Median percentage CFB - 24 weeks results,"200 mg q.d., week 8",9.01%
same,[total cholesterol] Mean percentage CFB - 12 weeks results,"200 mg q.d., week 12",13.12%
same,[total cholesterol] Mean percentage CFB - 24 weeks results,"200 mg q.d., week 12",13.12%
same,[total cholesterol] Median percentage CFB - 24 weeks results,"200 mg q.d., week 12",11.96%
same,[total cholesterol] Mean percentage CFB - 24 weeks results,"200 mg q.d., week 16",11.40%
same,[total cholesterol] Median percentage CFB - 24 weeks results,"200 mg q.d., week 16",8.36%
same,[total cholesterol] Mean percentage CFB - 24 weeks results,"200 mg q.d., week 20",11.67%
same,[total cholesterol] Median percentage CFB - 24 weeks results,"200 mg q.d., week 20",11.04%
same,[total cholesterol] Mean percentage CFB - 24 weeks results,"200 mg q.d., week 24",12.83%
same,[total cholesterol] Median percentage CFB - 24 weeks results,"200 mg q.d., week 24",9.81%
same,[Total cholesterol] Median CFB,"Study 2 12 weeks results, 50 mg q.d., week 1",0.100 mmol/L
same,[Total cholesterol] Median CFB,"Study 2 12 weeks results, 50 mg q.d., week 2",0.000 mmol/L
same,[Total cholesterol] Median CFB,"Study 2 12 weeks results, 50 mg q.d., week 4",0.000 mmol/L
same,[Total cholesterol] Median CFB,"Study 2 12 weeks results, 50 mg q.d., week 8",0.250 mmol/L
same,[Total cholesterol] Median CFB,"Study 2 12 weeks results, 50 mg q.d., week 12",0.140 mmol/L
same,[Total cholesterol] Median CFB,"Study 2 12 weeks results, 100 mg q.d., week 1",0.100 mmol/L
same,[Total cholesterol] Median CFB,"Study 2 12 weeks results, 100 mg q.d., week 2",0.140 mmol/L
same,[Total cholesterol] Median CFB,"Study 2 12 weeks results, 100 mg q.d., week 4",0.265 mmol/L
same,[Total cholesterol] Median CFB,"Study 2 12 weeks results, 100 mg q.d., week 8",0.250 mmol/L
same,[Total cholesterol] Median CFB,"Study 2 12 weeks results, 100 mg q.d., week 12",0.350 mmol/L
same,[Total cholesterol] Median CFB,"Study 2 12 weeks results, 200 mg q.d., week 1",0.260 mmol/L
same,[Total cholesterol] Median CFB,"Study 2 12 weeks results, 200 mg q.d., week 2",0.330 mmol/L
same,[Total cholesterol] Median CFB,"Study 2 12 weeks results, 200 mg q.d., week 4",0.390 mmol/L
same,[Total cholesterol] Median CFB,"Study 2 12 weeks results, 200 mg q.d., week 8",0.400 mmol/L
same,[Total cholesterol] Median CFB,"Study 2 12 weeks results, 200 mg q.d., week 12",0.560 mmol/L
same,[Total cholesterol] Median CFB,"Study 2 24 weeks results, 50 mg q.d. non responders switching to 100 mg q.d. at week 12, week 1",0.150 mmol/L
same,[Total cholesterol] Median CFB,"Study 2 24 weeks results, 50 mg q.d. non responders switching to 100 mg q.d. at week 12, week 2",0.100 mmol/L
same,[Total cholesterol] Median CFB,"Study 2 24 weeks results, 50 mg q.d. non responders switching to 100 mg q.d. at week 12, week 4",0.350 mmol/L
same,[Total cholesterol] Median CFB,"Study 2 24 weeks results, 50 mg q.d. non responders switching to 100 mg q.d. at week 12, week 8",0.140 mmol/L
same,[Total cholesterol] Median CFB,"Study 2 24 weeks results, 50 mg q.d. non responders switching to 100 mg q.d. at week 12, week 12",0.330 mmol/L
same,[Total cholesterol] Median CFB,"Study 2 24 weeks results, 50 mg q.d. non responders switching to 100 mg q.d. at week 12, week 16",0.540 mmol/L
same,[Total cholesterol] Median CFB,"Study 2 24 weeks results, 50 mg q.d. non responders switching to 100 mg q.d. at week 12, week 20",0.280 mmol/L
same,[Total cholesterol] Median CFB,"Study 2 24 weeks results, 50 mg q.d. non responders switching to 100 mg q.d. at week 12, week 24",0.550 mmol/L
same,[Total cholesterol] Median CFB,"Study 2 24 weeks results, 50 mg q.d. responders, week 1",0.020 mmol/L
same,[Total cholesterol] Median CFB,"Study 2 24 weeks results, 50 mg q.d. responders, week 2",-0.040 mmol/L
same,[Total cholesterol] Median CFB,"Study 2 24 weeks results, 50 mg q.d. responders, week 4",-0.030 mmol/L
same,[Total cholesterol] Median CFB,"Study 2 24 weeks results, 50 mg q.d. responders, week 8",0.350 mmol/L
same,[Total cholesterol] Median CFB,"Study 2 24 weeks results, 50 mg q.d. responders, week 12",0.060 mmol/L
same,[Total cholesterol] Median CFB,"Study 2 24 weeks results, 50 mg q.d. responders, week 16",0.165 mmol/L
same,[Total cholesterol] Median CFB,"Study 2 24 weeks results, 50 mg q.d. responders, week 20",0.215 mmol/L
same,[Total cholesterol] Median CFB,"Study 2 24 weeks results, 50 mg q.d. responders, week 24",0.250 mmol/L
same,[Total cholesterol] Median CFB,"Study 2 24 weeks results, 100 mg q.d., week 1",0.100 mmol/L
same,[Total cholesterol] Median CFB,"Study 2 24 weeks results, 100 mg q.d., week 2",0.140 mmol/L
same,[Total cholesterol] Median CFB,"Study 2 24 weeks results, 100 mg q.d., week 4",0.265 mmol/L
same,[Total cholesterol] Median CFB,"Study 2 24 weeks results, 100 mg q.d., week 8",0.250 mmol/L
same,[Total cholesterol] Median CFB,"Study 2 24 weeks results, 100 mg q.d., week 12",0.350 mmol/L
same,[Total cholesterol] Median CFB,"Study 2 24 weeks results, 100 mg q.d., week 16",0.400 mmol/L
same,[Total cholesterol] Median CFB,"Study 2 24 weeks results, 100 mg q.d., week 20",0.400 mmol/L
same,[Total cholesterol] Median CFB,"Study 2 24 weeks results, 100 mg q.d., week 24",0.445 mmol/L
same,[Total cholesterol] Median CFB,"Study 2 24 weeks results, 200 mg q.d., week 1",0.260 mmol/L
same,[Total cholesterol] Median CFB,"Study 2 24 weeks results, 200 mg q.d., week 2",0.330 mmol/L
same,[Total cholesterol] Median CFB,"Study 2 24 weeks results, 200 mg q.d., week 4",0.390 mmol/L
same,[Total cholesterol] Median CFB,"Study 2 24 weeks results, 200 mg q.d., week 8",0.400 mmol/L
same,[Total cholesterol] Median CFB,"Study 2 24 weeks results, 200 mg q.d., week 12",0.560 mmol/L
same,[Total cholesterol] Median CFB,"Study 2 24 weeks results, 200 mg q.d., week 16",0.410 mmol/L
same,[Total cholesterol] Median CFB,"Study 2 24 weeks results, 200 mg q.d., week 20",0.490 mmol/L
same,[Total cholesterol] Median CFB,"Study 2 24 weeks results, 200 mg q.d., week 24",0.565 mmol/L
same,[Total cholesterol] Median CFB,"Study 2 24 weeks results, placebo switching to 100 mg q.d. at week 12, week 16",0.200 mmol/L
same,[Total cholesterol] Median CFB,"Study 2 24 weeks results, placebo switching to 100 mg q.d. at week 12, week 20",0.220 mmol/L
same,[Total cholesterol] Median CFB,"Study 2 24 weeks results, placebo switching to 100 mg q.d. at week 12, week 24",0.300 mmol/L
same,[total cholesterol] Mean percentage CFB - 24 weeks results,[1],5.14%
same,[total cholesterol] Median percentage CFB - 24 weeks results,[1],3.87%
same,[total cholesterol] Mean percentage CFB - 24 weeks results,[2],7.27%
same,[total cholesterol] Median percentage CFB - 24 weeks results,[2],5.09%
same,[total cholesterol] Mean percentage CFB - 24 weeks results,[3],6.98%
same,[total cholesterol] Median percentage CFB - 24 weeks results,[3],5.57%
